Laboratory results: patent US20090221530A1, “Relaxase Modulators and Methods of Using Same” (priority 2005, published 2009)
In brackets after ≈: the same amount, converted by molar mass. Where two headings read alike, the source gives them in different places.

Assays:
F+ or F− cells = test: 24 hr. MIC bounds (turbid/clear wells); type: cell-based, E. coli; conditions: 8x serial dilutions, bounds identical for F+ or F− cells; for MIC: Escherichia coli
F− recipient cells = test: microbe, parasite or virus in culture; type: cell-based, E. coli; conditions: for EC50 / 100 minute EC50: vs. F− recipient cells; for EC50: read-out: 100 minute EC50; for Selectivities by EC50, Donors: listed as vs. F− recipient cells relative to donors; for Selectivities by EC50, Transconj.: listed as vs. F− recipient cells relative to transconjugants
Text: (§1) A 96-well fluorescence-based assay using oxygen biosensor plates (Becton Dickinson, Franklin Lakes, N.J., U.S.A.) was employed to monitor bacterial cell survival. FIG. 7 schematically illustrates the assay mechanism of action. […] In the absence of viable bacteria, however, no fluorescence emission is detected because the fluorophore is quenched by free oxygen. The assay can further be utilized to measure conjugative DNA transfer.
(§2) Relaxase-dependent cell survival was examined by placing cultures of F+/TraI+ E. coli cells (with antibiotic resistance, e.g., Ab^r1, on a non-conjugative plasmid) within wells and exposing them to putative inhibitory compounds. […] Negative controls for this assay can be F− (Ab^r2) cells and F+ cells (Ab^r1) containing either no F plasmid relaxase (TraI) gene, or a TraI harboring catalytic tyrosine to phenylalanine mutations; in both cases, these control cells should be resistant to relaxase-dependent cell toxicity. […] Fluorescence can be measured using a PHERASTAR™ fluorescence plate reader (BMG LABTECH, Offenburg, Germany) over 8 hours time.

F+ donor cells = test: microbe, parasite or virus in culture; type: cell-based, E. coli; conditions: for EC50 / 100 minute EC50: vs. F+ donor cells; for EC50: read-out: 100 minute EC50; for Selectivities by EC50, Transconj.: listed as vs. F+ donor cells relative to transconjugants
Text: as §1, §2

transconjugants = test: microbe, parasite or virus in culture; type: cell-based, E. coli; conditions: for Selectivities by EC50, Donors: listed as vs. transconjugants relative to donors
Text: as §1, §2

F plasmid TraI N300 = target: T1, F plasmid TraI N300 (Escherichia coli, UniProt P14565); test: Fluorescence kinetic assay of oriT DNA cleavage and crossover by TraI N300; type: biochemical, E. coli; conditions: data not shown
T1 construct: An amino-terminal 300 residue F plasmid TraI construct; made in house; host or cells: E. coli BL21 (DE3)/pLysS or HMS174 (DE3)/pLysS, vector pTYB2
T1 sequence (P14565 1-306): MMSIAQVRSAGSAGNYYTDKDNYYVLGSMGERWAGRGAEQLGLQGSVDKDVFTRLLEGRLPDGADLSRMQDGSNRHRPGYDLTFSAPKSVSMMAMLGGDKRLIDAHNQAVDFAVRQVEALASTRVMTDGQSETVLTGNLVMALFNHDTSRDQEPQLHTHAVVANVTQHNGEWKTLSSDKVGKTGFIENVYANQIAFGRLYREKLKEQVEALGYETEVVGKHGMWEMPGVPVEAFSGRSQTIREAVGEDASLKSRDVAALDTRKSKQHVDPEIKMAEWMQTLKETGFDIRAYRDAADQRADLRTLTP
Experimental: Reaction Buffer: 6.42 mM MgCl2, 20.5% glycerol, 153.9 mM NaCl, and 51.3 mM Tris-HCl pH 7.5. Streptavidin Wash Buffer (Tris buffered saline, TBS/Tween): and 150 mM NaCl, 25 mM Tris-HCl pH 7.5, and 0.05% Tween-20. Stopping Buffer: 1.2% sodium-dodecyl sulfate (SDS), and 300 mM EDTA pH 10. TE Buffer: 1 mM EDTA, and 10 mM Tris-HCl pH 7.4. Fluorescence Buffer: 80% glycerol, 200 mM Tris-HCl pH 8.0. Short-term N300 stock (for storage at −20° C.): 50% Reaction Buffer, 49.8% glycerol, 0.2% long-term protein solution (84.6 nM final N300 concentration). All 5× stocks except Probe stocks were diluted in Reaction Buffer. 5× Enzyme Stock: 8.4 mL short-term N300 stock diluted to 2.02 nM N300. 5× Inhibitor Stocks: imidodiphosphate (pNp) at 0-50 nM in Reaction Buffer. 5× Substrate Stocks: oligonucleotides b29 and PCb31eco diluted to […] each, by 3-fold serial dilutions. 5× Probe Stocks: […] (1.2-fold molar excess) oligonucleotide downF in TE Buffer. All reactions and procedures involving downF were assembled or performed in darkened conditions. Solutions and microtiter plates containing downF were kept in foil-lined containers at all times to prevent photobleaching.
Two oriT derived oligonucleotides, b29 and PCb31eco, were designed for binding and cleavage by TraI based on past studies (see Oligonucleotides section herein; FIG. 4A). The overall method is modified from those described previously for the study of TraI and R388TrwC (Byrd et al., 2002; Grandoso et al., 2000; Matson and Morton, 1991). Reactions were assembled from 16 μL of 5× Substrate Stock, 16 μL of 5× Inhibitor Stock, and 32 μL of Reaction Buffer. 80 μL reactions were initiated with 16 μL of 5× Enzyme Stock and raised to 37° C. 10 μL samples were removed at eight time points (optimized to define timecourses) and stopped in 10 μL of Stopping Buffer at room temperature. Stopped reactions were placed on a 100° C. heat block for one minute, spiked with 2 μL of 5× Probe Stock while still hot, and incubated at 37° C. for 10 minutes (see Kinetic Assay Formulations for probe handling).
Samples were diluted to […] with Streptavidin Wash Buffer and transferred to Biobind Assembly streptavidin-coated microtiter plates (Thermo Electron Corporation, Waltham, Mass., U.S.A.) and incubated at 37° C. for 45 minutes. Plates were washed with at least 5-fold excess Streptavidin Wash Buffer (in an inverted position to prevent excess biotinylated species from transferring between wells). Wells were filled with 65 μL of Fluorescence Buffer for optimum 6-FAM™ fluorescence. Plates were read in a FLUOSTAR OPTIMA™ (BMG Labtech, Offenburg, Germany) with a 490 nm excitation and 520 nm emission filters (10 nm bandpass) with the gain optimized for maximum signal. The timecourses thus collected were designated Cleavage Courses. Plates were removed and irradiated with 306 nm ultraviolet radiation for 10 minutes to cleave the PC biotin linker. They were then washed inverted with at least 5-fold excess Streptavidin Wash Buffer, filled with 65 μL of Fluorescence Buffer, and again read as above. These timecourses were designated Cleavage+Crossover Courses (FIG. 4A).
All timecourses were fitted by nonlinear regression with un-weighted least-squares methods using SIGMAPLOT™ 8.0 (SYSTAT Software, Inc., Point Richmond, Calif., U.S.A.) (also used for graph construction). Timecourses with blanked signals in arbitrary fluorescence units were scaled by curve mean in groups of at least four replicates, culled for outliers, and averaged by time point. On average, one replicate time point was culled from each group of four used. The averaged curves were fitted to a simple, three-parameter exponential decay equation (Equation 1), time versus signal, and converted into units of concentration.
where t is time in seconds, y0+a is the initial signal, b is a constant that determines the shape of the curve. […]

[1] = clear wells after 24 hr. incubation, read-out: 24 hr. MIC bounds, upper
[2] = turbid wells after 24 hr. incubation, read-out: 24 hr. MIC bounds, lower
[3] = Escherichia coli, 100 min, first EC50 block, mass concentration
[4] = Escherichia coli, 100 min, first EC50 block
[5] = Escherichia coli, 100 min, second block, mass concentration
[6] = Escherichia coli, 100 min, second block
[7] = Escherichia coli, 100 min, read-out: 100 minute EC50, vs. transconjugants, first EC50 block, mass concentration
[8] = Escherichia coli, 100 min, read-out: 100 minute EC50, vs. transconjugants, second block
[9] = Escherichia coli, 100 min, read-out: 100 minute EC50, vs. transconjugants, second block, mass concentration
[10] = clear wells after 24 hr. incubation
[11] = turbid wells after 24 hr. incubation
[12] = first EC50 block, mass concentration
[13] = second block, mass concentration
[14] = vs. transconjugants, first EC50 block, mass concentration
[15] = vs. transconjugants, first EC50 block, read-out: 100 minute EC50
[16] = vs. transconjugants, second block, mass concentration
[17] = vs. transconjugants, second block, read-out: 100 minute EC50

Compound | Selectivities by EC50, Donors (F− recipient cells; first EC50 block) | Selectivities by EC50, Transconj. (F− recipient cells; first EC50 block) | Selectivities by EC50, Transconj. (F+ donor cells; first EC50 block) | Selectivities by EC50, Transconj. (F+ donor cells; second block) | Selectivities by EC50, Donors (transconjugants; first EC50 block) | Selectivities by EC50, Donors (transconjugants; second block) | 24 hr. MIC bounds, upper (F+ or F− cells; [10]) | 24 hr. MIC bounds, lower (F+ or F− cells; [11]) | 100 minute EC50 (F− recipient cells; [12]) | EC50 (F− recipient cells; first EC50 block) | 100 minute EC50 (F− recipient cells; [13]) | EC50 (F− recipient cells; second block) | 100 minute EC50 (F+ donor cells; [12]) | EC50 (F+ donor cells; first EC50 block) | 100 minute EC50 (F+ donor cells; [13]) | EC50 (F+ donor cells; second block) | 100 minute EC50 (transconjugants; [14]) | EC50 (transconjugants; [15]) | 100 minute EC50 (transconjugants; [16]) | EC50 (transconjugants; [17]) | other results
O=P(O)(O)C(Cl)(Cl)P(=O)(O)O [Clodronate, reference compound] | 3.6E+02 | 3.9E+01 | 1.1E−01 | 6.1E+00 | 9.2E+00 | 1.6E−01 |  |  |  |  |  |  |  |  |  |  |  |  |  |  | MIC (F+ or F− cells; [1]): 100 mM (≈ 24500 µg/mL); MIC (F+ or F− cells; [2]): 12.5 mM (≈ 3060 µg/mL); EC50 (F− recipient cells; [3]): 365 µg/mL; EC50 (F− recipient cells; [4]): 1000 µM; EC50 (F− recipient cells; [5]): > 24000 µg/mL; EC50 (F− recipient cells; [6]): > 100000 µM; EC50 (F+ donor cells; [3]): 1 µg/mL; EC50 (F+ donor cells; [5]): 7000 µg/mL; EC50 (F+ donor cells; [6]): 30000 µM; EC50 (transconjugants; Escherichia coli, 100 min, read-out: 100 minute EC50, vs. transconjugants, first EC50 block): 38 µM; EC50 (transconjugants; [7]): 9 µg/mL; EC50 (transconjugants; [8]): 5000 µM; EC50 (transconjugants; [9]): 1000 µg/mL
COP(=O)(OC)c1ccccc1P(=O)(OC)OC [1,2-Bis(dimethoxyphosphoryl)benzene, 1,2-bis(dimethoxyphosphoryl)benzene] | 3.3E+05 | 1.6E+03 | 4.8E−03 |  | 2.1E+02 |  | 100 mM | 12.5 mM | 7000 µg/mL | 22000 µM | >29000 µg/mL | > 100000 µM | 0.02 µg/mL | 0.068 µM | >29000 µg/mL | > 100000 µM | 4 µg/mL | 14 ± 0.3 µM | >29000 µg/mL | > 100000 µM | 
CC(O)(P(=O)(O)O)P(=O)(O)O [Etidronate, reference compound] | 4.3E+04 | 5.9E+04 | 1.4E+00 | 2.0E+01 | 7.3E−01 | 5.1E−02 |  |  |  |  |  |  |  |  |  |  |  |  |  |  | MIC (F+ or F− cells; [1]): 12.5 mM (≈ 2580 µg/mL); MIC (F+ or F− cells; [2]): 1.56 mM (≈ 321 µg/mL); EC50 (F− recipient cells; [3]): 67 µg/mL; EC50 (F− recipient cells; [4]): 327 µM; EC50 (F− recipient cells; [5]): 9000 µg/mL; EC50 (F− recipient cells; [6]): 42000 µM; Selectivities by EC50, Donors (F− recipient cells; second block): 2.1E+00; Selectivities by EC50, Transconj. (F− recipient cells; second block): 4.1E+01; EC50 (F+ donor cells; [3]): 0.002 µg/mL; EC50 (F+ donor cells; [4]): 0.008 ± 0.0002 µM; EC50 (F+ donor cells; [5]): 4000 µg/mL; EC50 (F+ donor cells; [6]): 20000 µM; EC50 (transconjugants; [7]): 0.001 µg/mL; EC50 (transconjugants; [8]): 1000 µM; EC50 (transconjugants; [9]): 210 µg/mL
O=P(O)(O)OP(=O)(O)O [Pyrophosphate, reference compound] |  |  |  |  |  |  |  |  |  |  |  |  |  |  |  |  |  |  |  |  | effect on enzyme activity (F plasmid TraI N300): no effect
Methylenediphosphonate | 7.8E+01 | 6.9E+03 | 8.8E+01 | 1.8E+01 | 1.1E−02 | 5.5E−02 | 12.5 mM | 1.56 mM | 117 µg/mL | 667 ± 0.1 µM | 7000 µg/mL | 41000 µM | 1 µg/mL | 8 µM | 4000 µg/mL | 21000 µM | 0.017 µg/mL | 0.096 ± 0.0123 µM | 205 µg/mL | 1000 µM | Selectivities by EC50, Donors (F− recipient cells; second block): 1.9E+00; Selectivities by EC50, Transconj. (F− recipient cells; second block): 3.5E+01
O=P(O)(O)CNCP(=O)(O)O [Iminobis(methylphosphonate)] | 4.8E+05 | 4.0E+03 | 8.4E−03 |  | 1.2E+02 |  | 10 mM | 1.25 mM | 1000 µg/mL | 5000 ± 3300 µM | >2000 µg/mL | > 10000 µM | 0.002 µg/mL | 0.01 µM | >2000 µg/mL | > 10000 µM | 0.253 µg/mL | 1 µM | 2000 µg/mL | 8000 ± 500 µM | 
